Assay results published in patent US7585880B2, “Phenylpropanoic acid derivatives” (Takeda Pharmaceutical Company Limited, priority 2003, dated 2009).

Target: T1, human GPR40 (Homo sapiens, UniProt O14842)
T1 construct: expressed in transfected cells
Assay: Determination of EC50 against human GPR40: intracellular calcium change by FLIPR in CHO cells
Format: cell-based
Conditions: CHO cell line that stably expressed human GPR40; changes in intracellular calcium concentration measured by FLIPR (Fluo3-AM)
Procedure: Determination of EC50 of the Compound of the Present Invention Against Human GPR40
For determination of EC50, CHO cell line that stably expressed human GPR40 was used. Unless otherwise indicated, the CHO cell line was cultured using α-MEM medium (Invitrogen) containing 10% fetal calf serum (Invitrogen).
The cells cultured to nearly confluent were rinsed with PBS (Invitrogen) on the previous day of the assay, peeled off with 0.05% Trypsin-EDTA solution (Invitrogen) and recovered by centrifugation. The number of the obtained cells was counted, and the cells were diluted such that 3×10^5 cells were contained per 1 mL of the medium, dispensed to a black welled 96-well plate (coster) by 100 μL per well and cultured overnight in a CO2 incubator. Various test compounds were added to the CHO cells thus prepared, and the changes in the intracellular calcium concentration was measured using FLIPR (Molecular Device). The below-mentioned pre-treatment was applied to measure changes in the intracellular calcium concentration by FLIPR.
An assay buffer for adding a fluorescent dye Fluo3-AM (DOJIN) to the cells, or for washing the cells immediately before FLIPR assay was prepared. To a solution of 1M HEPES (pH 7.4, DOJIN, 20 mL) added to HBSS (Invitrogen, 1000 mL) (hereinafter HBSS/HEPES solution) was added a solution (10 mL) obtained by dissolving probenecid (Sigma, 710 mg) in 1N NaOH (5 mL), and adding and mixing an HBSS/HEPES solution (5 mL), and the resulting solution was used as an assay buffer. Fluo3-AM (50 μg) was dissolved in dimethylsulfoxide (Wako, 21 μL), and an equivalent amount of 20% pluronic acid (Molecular Probes) was added and mixed. The solution was added to the assay buffer (10.6 mL) supplemented with fetal calf serum (105 μL) to give a fluorescent dye solution. On the previous day of assay, the medium of the CHO cells newly inoculated to the black welled 96-well plate was removed, the fluorescent dye solution was immediately dispensed by 100 μL per well and the cells were cultured in a CO2 incubator for 1 hr to allow intake of the fluorescent dye by the cells. The cells after the culture were washed with the above-mentioned assay buffer and set on FLIPR. The test compound was diluted with dimethylsulfoxide in advance, dispensed to polypropylene 96-well plate (sample plate) by 2 μL, and cryopreserved at −20° C. To the thawed sample plate was added an assay buffer containing 0.015% CHAPS (DOJIN) by 198 μL, and simultaneously set on FLIPR together with the cell plate. After the aforementioned pre-treatment, changes in the intracellular calcium concentration upon addition of various test compounds was measured by FLIPR. Based on the results, a dose-response curve of each test compound was formed and EC50 was calculated.

T1 sequence (O14842 whole entry): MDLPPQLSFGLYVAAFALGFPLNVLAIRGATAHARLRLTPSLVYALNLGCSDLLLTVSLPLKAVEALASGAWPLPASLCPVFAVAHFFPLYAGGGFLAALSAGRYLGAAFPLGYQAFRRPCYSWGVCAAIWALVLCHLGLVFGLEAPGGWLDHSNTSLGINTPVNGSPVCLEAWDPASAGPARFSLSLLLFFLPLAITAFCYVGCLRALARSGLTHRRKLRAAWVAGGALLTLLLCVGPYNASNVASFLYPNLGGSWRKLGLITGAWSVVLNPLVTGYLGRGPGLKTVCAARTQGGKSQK

| Compound | EC50 |
| --- | --- |
| CC(C)c1csc(N(CCc2ccccc2)Cc2ccc(COc3ccc(CCC(=O)O)cc3)cc2)n1 [Example 2, 3-{4-[(4-{[(4-isopropyl-1,3-thiazol-2-yl)(2-phenylethyl)amino]methyl}benzyl)oxy]phenyl}propanoic acid] | 48 nM |
| CC(C)c1csc(N(CCc2ccc(F)cc2)Cc2ccc(COc3ccc(CCC(=O)O)c(F)c3)cc2)n1 [Example 9, 3-{2-fluoro-4-[(4-{[[2-(4-fluorophenyl)ethyl](4-isopropyl-1,3-thiazol-2-yl)amino]methyl}benzyl)oxy]-phenyl}propanoic acid] | 38 nM |
| O=C(O)CCc1c(F)cc(OCc2ccc(CN(CCc3ccccc3)c3nc(-c4ccccc4)cs3)cc2)cc1F [Example 42, 3-[2,6-difluoro-4-[[4-[[(2-phenylethyl)(4-phenyl-1,3-thiazol-2-yl)amino]methyl]benzyl]oxy]phenyl]propanoic acid] | 65 nM |

Results, then the compound that gave them:

| EC50 | Compound |
| --- | --- |
| 19 nM | O=C(O)CCc1ccc(OCc2ccc(CN(CCc3ccccn3)c3nc(-c4ccccc4)cs3)cc2)cc1 [Example 12, 3-{4-[(4-([(4-phenyl-1,3-thiazol-2-yl)(2-pyridin-2-ylethyl)amino]methyl}benzyl)oxy]phenyl)propanoic acid] |
| 55 nM | CCCN(Cc1ccc(COc2ccc(CCC(=O)O)cc2)cc1)c1nc(-c2ccccc2)c(C)o1 [Example 40, 3-[4-[[4-[[(5-methyl-4-phenyl-1,3-oxazol-2-yl)(propyl)amino]methyl]benzyl]oxy]phenyl]propanoic acid] |

Test system: not given
Assay: not given
Conditions: not given

| melting point | Compound |
| --- | --- |
| 114 to 115 °C | O=C(O)CCc1ccc(OCc2ccc(CN(CCc3ccccc3)c3nc(-c4ccccc4)cs3)cc2)cc1 [Example 32, 3-[4-[[4-[[(2-phenylethyl)(4-phenyl-1,3-thiazol-2-yl)amino]methyl]benzyl]oxy]phenyl]propanoic acid] |
